Biological target: T1, MAGL (recombinant wild-type) (Homo sapiens, UniProt Q99685)
T1 sequence (Q99685 1-303): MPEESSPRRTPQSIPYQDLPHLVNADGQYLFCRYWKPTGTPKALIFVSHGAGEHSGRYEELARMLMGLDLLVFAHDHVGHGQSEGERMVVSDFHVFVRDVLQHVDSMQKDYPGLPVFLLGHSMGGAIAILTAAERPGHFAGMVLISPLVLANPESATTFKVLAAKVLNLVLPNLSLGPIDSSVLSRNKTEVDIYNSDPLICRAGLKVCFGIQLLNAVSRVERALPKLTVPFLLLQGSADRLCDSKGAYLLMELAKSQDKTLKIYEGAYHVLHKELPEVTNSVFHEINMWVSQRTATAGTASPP
Assay: MAGL inhibition, 4-NPA assay (hydrolysis of 4-nitrophenylacetate, absorbance at 405 nm)
Type: biochemical
Conditions: 4-NPA assay (footnote [a]: values not marked [b])
Method: Compounds were profiled for MAGL inhibitory activity by measuring the enzymatic activity of MAGL by following the hydrolysis of 4-nitrophenylacetate resulting in 4-nitrophenol, which absorbs at 405-412 nm (G. G. Muccioli, G. Labar, D. M. Lambert, Chem. Bio. Chem. 2008, 9, 2704-2710). This assay is hereinafter abbreviated “4-NPA assay”.
The assay was carried out in 384 well assay plates (black with clear bottom, non-binding surface treated, Corning Ref. 3655) in a total volume of 40 μL. Compound dilutions were made in 100% DMSO (VWR Chemicals 23500.297) in a polypropylene plate in 3-fold dilution steps to give a final concentration range in the assay from 25 μM to 1.7 nM. 1 μL compound dilutions (100% DMSO) were added to 19 μL MAGL (recombinant wild-type) in assay buffer (50 mM TRIS (GIBCO, 15567-027), 1 mM EDTA (Fluka, 03690-100 mL)). The plate was shaked for 1 min at 2000 rpm (Variomag Teleshake) and then incubated for 15 min at RT. To start the reaction, 20 μL 4-Nitrophenlyacetate (Sigma N-8130) in assay buffer with 6% EtOH was added. The final concentrations in the assay were 1 nM MAGL and 300 μM 4-Nitrophenylacetate. After shaking (1 min, 2000 rpm) and 5 min incubation at RT, the absorbance at 405 nm was measured for a first time (Molecular Devices, SpectraMax Paradigm). A second measurement was then done after incubation for 80 min at RT. From the two measurements, the slope was calculated by subtracting the first from the second measurement.

Compound | IC50 [µM]
CCc1cncc(C2CCN(C(=O)N3CC[C@@H]4OCC(=O)N[C@@H]4C3)CC2)c1 (single isomer, unassigned) [Example 40, (+) or (−)-cis-6-(4-(5-Ethylpyridin-3-yl)piperidine-1-carbonyl)hexahydro-2H-pyrido[4,3-b][1,4]oxazin-3(4H)-one] | 0.683
CC(F)(F)c1ccc(C2CCN(C(=O)N3CC[C@@H]4OCC(=O)N[C@@H]4C3)CC2)nc1 (single isomer, unassigned) [Example 41, (+) or (−)-cis-6-(4-(5-(1,1-Difluoroethyl)pyridin-2-yl)piperidine-1-carbonyl)hexahydro-2H-pyrido[4,3-b][1,4]oxazin-3(4H)-one] | 0.485
Cc1cccc(C(c2ccccc2)C2CCN(C(=O)N3CC[C@@H]4OCC(=O)N[C@@H]4C3)CC2)c1 (single isomer, unassigned) [Example 80, (4aR,8aS)-6-[4-[(S or R)-m-Tolyl(phenyl)methyl]piperidine-1-carbonyl]-4,4a,5,7,8,8a-hexahydropyrido[4,3-b][1,4]oxazin-3-one] | 0.0004
O=C1CO[C@H]2CCN(C(=O)N3CCC(c4cncc(C(F)(F)F)c4)CC3)C[C@H]2N1 [Example 29, (4aR,8aS)-6-(4-(5-(Trifluoromethyl)pyridin-3-yl)piperidine-1-carbonyl)hexahydro-2H-pyrido[4,3-b][1,4]oxazin-3(4H)-one] | 0.703
O=C1CO[C@H]2CCN(C(=O)N3CCC(C(F)(F)c4ccc(C(F)(F)F)cc4)CC3)C[C@H]2N1 [Example 30, (4aR,8aS)-6-(4-(Difluoro(4-(trifluoromethyl)phenyl)methyl)piperidine-1-carbonyl)hexahydro-2H-pyrido[4,3-b][1,4]oxazin-3(4H)-one] | 0.025
O=C1CO[C@H]2CCN(C(=O)N3CC(C(c4ccc(F)cc4)c4ccc(F)cc4)C3)C[C@H]2N1 [Example 82, (4aR,8aS)-6-(3-(bis(4-Fluorophenyl)methyl)azetidine-1-carbonyl)hexahydro-2H-pyrido[4,3-b][1,4]oxazin-3(4H)-one] | 1.2

The remaining compounds from weak to strong by IC50, led by results:

IC50 [µM] | Compound
0.103 | Cn1nc(C2CCN(C(=O)N3CC[C@@H]4OCC(=O)N[C@@H]4C3)CC2)c2ccc(Cl)cc21 (single isomer, unassigned) [Example 42, (+) or (−)-cis-6-(4-(6-Chloro-1-methyl-1H-indazol-3-yl)piperidine-1-carbonyl)hexahydro-2H-pyrido[4,3-b][1,4]oxazin-3(4H)-one]
0.088 | O=C1CO[C@@H]2CCN(C(=O)N3CCN(C(c4ccc(F)cc4)c4ccc(F)cc4)CC3)C[C@@H]2N1 (stereo in doubt) [Example 13, (−)-(cis)-6-(4-(bis(4-Fluorophenyl)methyl)piperazine-1-carbonyl)hexahydro-2H-pyrido[4,3-b][1,4]oxazin-3(4H)-one]
0.021 | O=C1CO[C@H]2CCN(C(=O)N3CCC(C(F)(F)c4ccc(F)cc4Cl)CC3)C[C@H]2N1 (single isomer, unassigned) [Example 39, (+) or (−)-cis-6-(4-((2-Chloro-4-fluorophenyl)difluoromethyl)piperidine-1-carbonyl)hexahydro-2H-pyrido[4,3-b][1,4]oxazin-3(4H)-one]
0.017 | O=C1CO[C@H]2CCN(C(=O)N3CCC(C(CCO)c4ccc(F)cc4)CC3)C[C@H]2N1 (single isomer, unassigned; (+)) [Example 31, (+)-(4aR,8aS)-6-(4-((R or S)-1-(4-Fluorophenyl)-3-hydroxypropyl)piperidine-1-carbonyl)hexahydro-2H-pyrido[4,3-b][1,4]oxazin-3(4H)-one]

Reference: US20230117324A1, “OXAZINE MONOACYLGLYCEROL LIPASE (MAGL) INHIBITORS” (Hoffmann-La Roche Inc., priority 2018, published 2023)
